The test system of the assay is troponin I. Briefly: Randomized double-blind trial of PEPA in blood-based STH cardioplegia; blood troponin I by immunoassay (ADVIA Centaur). In kind it is in vivo, human. As to conditions: patients undergoing coronary artery bypass surgery; versus STH without PEPA. As to the method:
A study was carried out to determine the effect of PEPA on heart tissue in patients with ischemic heart disease undergoing coronary artery bypass surgery. The study was a randomized, double-blind, parallel group, comparative trial that compared the effect during surgery (and shortly thereafter) of the presence or absence of a single dose of PEPA in blood-based STH.
The patients were assigned randomly to one of two groups. For the first group, PEPA was made up in a concentration of 495 μM/L as a single dose added to blood-based STH (“PEPA+STH”). Normal blood-based STH (without PEPA) was administered to the second group. There were 37 patients in each group.
PEPA was made up under sterile conditions in 40 ml of Ringer's solution and then filtered using a sterile 0.22 μm filter to sterilize the solution. Ten mL aliquots of the sterile PEPA solution were measured and added to each of three 1 L bags of Ringer's solution under sterile conditions providing a Ringer's solution containing 990 μM/L PEPA. […]
A sample of blood was collected from each patient at regular intervals during surgery (at the time of anaesthesia and at 6 and 12 hours after the start of surgery) and after surgery (at 24, 48 and 72 hours after the start of surgery). Each sample was analyzed by an immunoassay method using an ADVIA Centaur® system to determine the level of troponin I. […]

The source of these data is US20080125400A1, “USE OF PHOSPHOENOLPYRUVATE DERIVATIVES” (priority 2006, published 2008).

As to `C=C(OP(=O)(O)O)C(N)=O` [PEPA, 2-(dihydroxyphosphoryloxy)prop-2-enoic amide], the “overall concentration of troponin I in the blood over the period studied” value is recorded as “markedly reduces”.
